This is an account of results in ChEMBL document CHEMBL1201862, “PubChem BioAssay data set” (2004).

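Test compounds were applied to cells in 96-well plates for 48 hours at 5 doses. GI50 is the concentration that inhibits growth by half.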 The source made the active and inactive calls. Cut-off read from the data, not from the text of the source: active = GI50 up to about 1.1 µM and inactive = higher. Bounds are passed on as bounds.

Among the test systems are CCRF-CEM; SF-295; SK-MEL-2; OVCAR-3; HOP-62; IGROV-1; SF-539; COLO 205; CAKI-1; MOLT-4; SNB-75; LOX IMVI; NCI-H460; SK-MEL-28; NCI-H23; SNB-19; SN12C; UACC-62; Malme-3M; OVCAR-8.
Experiment in all cases: growth of human tumour cells (NCI), 48 h

Regarding `O=C1c2cccc3cc4ccccc4c(c23)C(=O)N1CCNCCN1C(=O)c2cccc3cc4ccccc4c(c23)C1=O`, the GI50 in the experiment on CCRF-CEM is 0.199 µM (active); in the experiment with SF-295, 0.243 µM (active); with SK-MEL-2, 1.58 µM (inactive); in the experiment on OVCAR-3, 0.484 µM (active); with HOP-62 it was 1.04 µM (active); in the experiment on IGROV-1, 0.589 µM (active). Further, the GI50 in the experiment on SF-539 is 0.773 µM (active); in the experiment with COLO 205, 0.731 µM (active); in the experiment with CAKI-1 it was 0.245 µM (active); in the experiment with MOLT-4 it was 0.097 µM (active); in the experiment on SNB-75, 0.373 µM (active); in the experiment with LOX IMVI, 0.233 µM (active). Besides, the GI50 in the experiment on NCI-H460 was 0.0541 µM (active); with SK-MEL-28, 0.592 µM (active); in the experiment on NCI-H23, 0.364 µM (active); with SNB-19 it was 0.39 µM (active); with SN12C, 0.306 µM (active); in the experiment with UACC-62, 0.318 µM (active). In addition, the GI50 was 0.465 µM (active) with Malme-3M and 0.357 µM (active) in the experiment on OVCAR-8.

For `O=C(O)c1cccc2cccc(-c3c4ccc(=O)cc-4oc4cc(O)ccc34)c12`, the GI50 was 69.2 µM (inactive) in the experiment with CCRF-CEM; 34.8 µM (inactive) in the experiment on SF-295; > 100 µM (inactive) in the experiment with SK-MEL-2; 21.3 µM (inactive) in the experiment with OVCAR-3; 16.4 µM (inactive) in the experiment with HOP-62; 75 µM (inactive) with IGROV-1. Further, the GI50 in the experiment on SF-539 is > 100 µM (inactive); in the experiment on COLO 205, 98.6 µM (inactive); in the experiment with CAKI-1, > 100 µM (inactive); in the experiment with MOLT-4 it was 27.3 µM (inactive); in the experiment with SNB-75, 60.1 µM (inactive); in the experiment on LOX IMVI, > 100 µM (inactive). Moreover, the GI50 with NCI-H460, in the experiment with SK-MEL-28, in the experiment on NCI-H23, in the experiment on SNB-19, in the experiment on SN12C and in the experiment with UACC-62 was > 100 µM (inactive) in each case. For the same compound, the GI50 in the experiment on Malme-3M and in the experiment with OVCAR-8 was > 100 µM (inactive) in each case.

Regarding `CSc1sc(=S)sc1SC`, the GI50 was > 100 µM (inactive) with CCRF-CEM; > 100 µM (inactive) with SF-295; > 31.6 µM (inactive) in the experiment with SK-MEL-2; > 100 µM (inactive) in the experiment on OVCAR-3; > 100 µM (inactive) in the experiment on HOP-62; > 100 µM (inactive) in the experiment with IGROV-1. Further, the GI50 was > 100 µM (inactive) in the experiment on SF-539; > 100 µM (inactive) in the experiment on COLO 205; 1 µM (active) in the experiment on CAKI-1; > 100 µM (inactive) in the experiment with MOLT-4; 46.9 µM (inactive) in the experiment on SNB-75; > 100 µM (inactive) with LOX IMVI. The GI50 in the experiment on NCI-H460, with SK-MEL-28, in the experiment on NCI-H23, in the experiment on SNB-19, in the experiment with SN12C and in the experiment with UACC-62 was > 100 µM (inactive) each time. The GI50 in the experiment on Malme-3M and with OVCAR-8 was > 100 µM (inactive) in each case.

As for `C=C1C(=O)OC2CC(C)C3C4OC4C(O)C3(C)C(O)C12` (stereo not given), the GI50 is 12 µM (inactive) with CCRF-CEM; 41 µM (inactive) with SF-295; 25.9 µM (inactive) in the experiment with SK-MEL-2; 25.9 µM (inactive) in the experiment with OVCAR-3; 68.9 µM (inactive) with HOP-62; 18.6 µM (inactive) with IGROV-1. Moreover, the GI50 in the experiment with SF-539 is 17.9 µM (inactive); in the experiment with COLO 205 it was 16.3 µM (inactive); in the experiment with CAKI-1, 22.8 µM (inactive); in the experiment with MOLT-4 it was 11.9 µM (inactive); with SNB-75 it was 41.7 µM (inactive); in the experiment on LOX IMVI it was 14 µM (inactive). Moreover, the GI50 with NCI-H460 is 19 µM (inactive); in the experiment with SK-MEL-28, 23.6 µM (inactive); with NCI-H23 it was 14.4 µM (inactive); in the experiment on SNB-19 it was 44.7 µM (inactive); in the experiment with SN12C, 23 µM (inactive); with UACC-62, 12.6 µM (inactive). The GI50 in the experiment on Malme-3M was 20.9 µM (inactive); in the experiment with OVCAR-8, 28.4 µM (inactive).

For the compound `NC(=O)Nc1cc(O)ccc1/N=N/c1ccc(S(=O)(=O)Nc2ccccn2)cc1`, the GI50 in the experiment with CCRF-CEM, in the experiment on SF-295, in the experiment on SK-MEL-2, with OVCAR-3, in the experiment on HOP-62 and in the experiment on IGROV-1 was > 100 µM (inactive) each time. Besides, the GI50 in the experiment with SF-539 is > 100 µM (inactive); with COLO 205, > 100 µM (inactive); in the experiment with CAKI-1, > 100 µM (inactive); with MOLT-4 it was 5.9 µM (inactive); in the experiment with SNB-75, > 100 µM (inactive); with LOX IMVI, > 100 µM (inactive). Also, the GI50 in the experiment on NCI-H460, in the experiment on SK-MEL-28, with NCI-H23, with SNB-19, in the experiment with SN12C and with UACC-62 was > 100 µM (inactive) each time. For the same compound, the GI50 in the experiment on Malme-3M and in the experiment with OVCAR-8 was > 100 µM (inactive) each time.

On to `CCC1OC(=O)C(C)C(OC2CC(C)(O)C(O)C(C)O2)C(C)C(O)C(C)(O)CC(C)C(=O)C(C)C(O)C1C` (stereo not given), for which the GI50 with CCRF-CEM was > 300 µM (inactive); with SF-295, > 300 µM (inactive); in the experiment on SK-MEL-2 it was > 300 µM (inactive); in the experiment with OVCAR-3 it was > 300 µM (inactive); in the experiment with HOP-62 it was 299 µM (inactive); with IGROV-1, > 300 µM (inactive). Besides, the GI50 in the experiment with SF-539, in the experiment on COLO 205, with CAKI-1, in the experiment with MOLT-4, in the experiment on SNB-75 and with LOX IMVI was > 300 µM (inactive) each time. The GI50 in the experiment on NCI-H460, in the experiment on SK-MEL-28, with NCI-H23, in the experiment with SNB-19, in the experiment on SN12C and with UACC-62 was > 300 µM (inactive) in each case. Moreover, the GI50 with Malme-3M and with OVCAR-8 was > 300 µM (inactive) in each case.

As for `CCC/C=C/C=C\C(=O)O[C@@H]1[C@@H](C)[C@]2(O)[C@@H]3C=C(C)C(=O)[C@H]3CC(COC(C)=O)=C[C@H]2[C@@H]2C(C)(C)[C@]12OC(C)=O`, the GI50 was 3.56 µM (inactive) in the experiment with CCRF-CEM; 6.64 µM (inactive) with SF-295; 43.3 µM (inactive) with SK-MEL-2; 46.7 µM (inactive) with OVCAR-3; 1.89 µM (inactive) in the experiment on HOP-62; 48.4 µM (inactive) in the experiment on IGROV-1. The GI50 is 41.4 µM (inactive) in the experiment with SF-539; 1.74 µM (inactive) in the experiment on COLO 205; 26.1 µM (inactive) in the experiment on CAKI-1; 10.2 µM (inactive) in the experiment on MOLT-4; 57.7 µM (inactive) in the experiment on SNB-75; 16.8 µM (inactive) in the experiment with LOX IMVI. Further, the GI50 in the experiment with NCI-H460 was 1.61 µM (inactive); with SK-MEL-28 it was 39.4 µM (inactive); in the experiment on NCI-H23, 33.7 µM (inactive); with SNB-19, 54.1 µM (inactive); in the experiment on SN12C, 40.3 µM (inactive); in the experiment with UACC-62, 35.2 µM (inactive). Further, the GI50 with Malme-3M was 33.2 µM (inactive); in the experiment on OVCAR-8 it was 40.7 µM (inactive).
